According to US7297676B2, “Thymosin alpha 1 peptide/polymer conjugates” (SciClone Pharmaceuticals, Inc., priority 2001, dated 2007):
Ends that are not written are not given here.

Experiments:
[1] = Adverse events observed in the rat studies; format: in vivo
Description: In the following examples, which are not intended to be limiting, a continuous infusion of TA1 was evaluated in a cancer therapy model with the use of surgically implanted osmotic minipumps, which deliver fluids at a constant flow rate for 5 days. Rats were given 5-fluorouracil (5-FU) to cause immune suppression, and then treated with injected or infused TA1 8 days later (the nadir of white cell count after 5-FU). Treatment groups, 8 rats each, were: control (minipumps with saline); low dose TA1 (0.2 mg/Kg sc injection; empty minipumps); high dose TA1 (3.5 mg/Kg sc injection; empty minipumps); and high dose infused TA1 (3.5 mg/Kg infused by minipumps). Immune parameters were determined at baseline and 8 days after 5-FU treatment (day 1 of TA1 treatment), and also at 5, 12, 20, and 27 days after TA1 treatment.
8 days after 5-FU treatment, rats were randomly assigned to one of the following groups (n=15): • Control (saline in minipump) • High dose TA1, injected s.c. at 3.5 mg/Kg (with empty minipumps) • Continuous infusion TA1, provided by minipump at 3.5 mg/Kg/5 days

[2] = subcutaneously injected; cited from earlier work
[3] = cited from earlier work
NK activity = test: Example 1: return of NK activity in 5-FU immune-suppressed rats; format: in vivo, rat; conditions: one injection, molar equivalent of 200 ug/kg thymosin, compared with Thymosin alpha 1 200 ug/kg
Description: (§1) Rats were injected with 5-fluorouracil (5-FU) to cause immune suppression, then were treated with an injection of thymosin alpha 1 (200 ug/kg) or pegylated thymosin alpha 1 (20,000 MW PEG-Thymosin alpha 1) (the equivalent on a molar basis of 200 ug/kg of thymosin molecules) to determine the effect on immune parameters.

activated T cells, CD25+ = test: Example 1: return of activated T cells in 5-FU immune-suppressed rats; format: in vivo, rat; conditions: one injection, molar equivalent of 200 ug/kg thymosin, compared with Thymosin alpha 1 200 ug/kg
Description: as §1

| Substance | adverse events ([1]; one rat given both injection 3.5 mg/Kg and continuous infusion of another 3.5 mg/Kg) | adverse events ([1]; rats, doses 15 times higher than usual (in one animal 30 times higher)) | plasma half-life [2] | dose found to be safe for humans [3] | return of NK activity (after depression by 5-FU) (NK activity) | return of activated T cells, CD25+ (activated T cells, CD25+) |
| --- | --- | --- | --- | --- | --- | --- |
| Ac-SDAAVDTSSEITTKDLKEKKEVVEEAEN-OH [TA1, Thymosin alpha 1] | no obvious adverse events | No adverse events were observed | about 2 hours | ≤ 16 mg/kg body weight/day |  |  |
| PEG-Thymosin alpha 1: 20,000 molecular weight PEG conjugated to the N-terminal end of TA1 ({PEG 20 kDa}-SDAAVDTSSEITTKDLKEKKEVVEEAEN; ends and bridges not checked; UniProt P06454 2-29, looked up) |  |  |  |  | greater | greater |
